What was measured:
STAT1 = assay: Mutant TIE2-transfected HUVEC Western blot assay: STAT1 phosphorylation downstream of TIE2; type: cell-based, human; conditions: 100 nM, 4 hours, HUVECs with WT TIE2 and TIE2 mutants, presence or absence of ANGPT1 stimulation
Experimental: (§1) HUVECs used for in vitro work were kindly provided by Dr. Lauri Eklund (Oulu, Finland). Briefly, cells were grown in endothelial cell growth media (Tebu-Bio, Boechout, Belgium) containing 10% fetal calf serum (Sigma-Aldrich, Diegem, Belgium) at 37 degrees Celsius, 5% CO2, and 95% humidity. Cells were allowed to expand until reaching 90-95% confluence at which point they were subcultured or harvested for assay use.
(§2) HUVEC cells (2.5×10^5 cells/well) stably expressing WT or TIE2 mutants R849W, L914F, R1099*, Y897C/R915C, Y897F/F915L, or T1105N/T1106P were added to a 6-well plate coated with attachment factor solution (Tebu-Bio, Boechout, Belgium) in 2 mL of endothelial cell growth media (Tebu-Bio, Boechout, Belgium) containing 10% fetal calf serum (Sigma-Aldrich, Diegem, Belgium). Cells were subsequently incubated overnight at 37 degrees Celsius, 5% CO2, and 95% humidity. The next day test compound or DMSO was added to the wells (0.068% final DMSO concentration). The plates were then incubated for 4 hours at 37 degrees Celsius, 5% CO2, and 95% humidity. Next, cells were stimulated with 1 μg/mL ANGPT1 for 15 minutes. Cells were lysed and pTIE2, TIE2, b-actin, pAKT (S473), pAKT (T308), AKT, pSTAT1, and STAT1 were detected by Western blot.

AKT = assay: Mutant TIE2-transfected HUVEC Western blot assay: AKT phosphorylation downstream of TIE2; type: cell-based, human; conditions: 100 nM, 4 hours, HUVECs with WT TIE2 and TIE2 mutants, presence or absence of ANGPT1 stimulation
Experimental: as §1, §2

TIE2 mutant HUVECs [1] = assay: Mutant TIE2-transfected gene expression assay (quantitative PCR); type: cell-based, human; conditions: 100 nM, 48 hours, normalized to GAPDH
Experimental: as §1
HUVEC cells (5×10^5 cells/plate) stably expressing WT or TIE2 mutants R849W, L914F, R1099*, Y897C/R915C, Y897F/F915L, or T1105N/T1106P were added to a 10 cm plate coated with attachment factor solution (Tebu-Bio, Boechout, Belgium) in endothelial cell growth media (Tebu-Bio, Boechout, Belgium) containing 10% fetal calf serum (Sigma-Aldrich, Diegem, Belgium). Cells were then incubated for 2 days at 37 degrees Celsius, 5% CO2, and 95% humidity. Next, test compound or DMSO was added to the wells (0.068% final DMSO concentration). The plates were then further incubated for 48 hours at 37 degrees Celsius, 5% CO2, and 95% humidity. RNA was extracted by collecting the cells into TriPure isolation reagent (Sigma-Aldrich, Diegem, Belgium). Subsequently, cDNA from extracted RNA was synthesized using RevertAid H Minus first strand cDNA synthesis kit (Thermo Fischer Scientific, Merelbeke, Belgium). Quantitative PCR was carried out using LightCycler480 SYBRGreen master mix and a LightCycler 480 II instrument (Roche, Switzerland). cDNA for ANGPT2, PDGFB, ADAMTS1, ADAMTS9, PLAT, and PLAU were quantified and normalized to the expression from the housekeeping gene GAPDH.

[2] = system: TIE2 mutant expressing HUVECs; assay: Mutant TIE2-transfected fibronectin assay (extracellular matrix); type: cell-based, human; conditions: 100 nM, 48 hours, TIE2 mutant HUVECs versus WT TIE2
Experimental: as §1
HUVEC cells (3×10^5 cells/well) stably expressing WT or TIE2 mutants R849W, L914F, R1099*, Y897C/R915C, Y897F/F915L, or T1105N/T1106P were added to a 6-well plate coated with attachment factor solution (Tebu-Bio, Boechout, Belgium) in endothelial cell growth media (Tebu-Bio, Boechout, Belgium) containing 10% fetal calf serum (Sigma-Aldrich, Diegem, Belgium). Cells were then incubated for 24 hours at 37 degrees Celsius, 5% CO2, and 95% humidity. Next, test compound or DMSO was added to the wells (0.068% final DMSO concentration). The plates were then further incubated for 48 hours at 37 degrees Celsius, 5% CO2, and 95% humidity. Cells were switched into 2% FBS for overnight. Intracellular fibronectin levels were lower in transfectants, thus cellular lysates were collected and used as controls. […]

[3] = system: HUVEC cells expressing mutant TIE2-L914F (VM lesions in matrigel plugs); assay: Venous malformation mouse model, diet from day of injection (Day 0); type: in vivo, athymic nude male mice
Experimental: (§3) For the in vivo model, fresh HUVEC transfectants were made using lentiviral infection. […]. Subsequently, 25,000 HUVECs/well (LGC Standards sarl, France) were grown on a 24-well plate for 24 hrs, infected with 500 μl of the lentivirus-TIE2-L914F mix, then cultured for another 48 hrs, collected, then frozen.
(§4) To evaluate the effect of the compound on vascular malformation (VM) lesion development in vivo, HUVEC cells (2.5×10^6) expressing mutant TIE2-L914F were cultured, detached, then resuspended in 200 μL matrigel (Corning). The mixture was injected subcutaneously into the dorsal back of athymic nude male mice, aged 5-7 weeks (Charles River). […] At post-implant day 7 or 16, mice were euthanized and the skin surrounding each matrigel plug was excised, then pinned flat onto a styrofoam board and fixed in 10% neutral buffered formalin solution (Sigma-Aldrich, Diegem, Belgium) overnight. Matrigel plugs were removed from the murine skin, dehydrated in a series of graded alcohol, and embedded in paraffin. Paraffin-embedded plugs were then cut into 5 μm sections for histological analysis. After de-paraffinization in xylene and rehydration in a series of degraded alcohol, sections were subjected to heat-induced antigen-retrieval in 0.1 M citrate buffer, pH 6.0, with or without 0.05% Tween-20. For immunohistochemical staining, sections were blocked with 3% H2O2 (Sigma-Aldrich, Diegem, Belgium), incubated with a biotinylated antibody against the human endothelial cell marker Ulex europaeus Agglutinin 1 (UEA1) (Vector labs, Brussels, Belgium), followed by a horseradish peroxidase-conjugated streptavidin secondary antibody (GE Healthcare, Diegem, Belgium), then in a DAB solution (Vector labs, Brussels, Belgium). Sections were counterstained with hematoxylin and mounted with VectaMount permanent mounting medium (Vector labs, Brussels, Belgium). For immunofluorescent staining (IF), sections were incubated with primary antibodies that recognize UEA1, the smooth muscle layer marker SMA (clone 1A4, Sigma-Aldrich, Diegem, Belgium), phosphorylated-TIE2(Y772) (Bioke, Leiden, Netherlands), or total TIE2 (Santa Cruz, Heidelberg, Germany). Secondary antibodies used were conjugated to Alexa488-, Alexa649-, or CY5-fluorophores. Slides were mounted with VectaShield Hardset mounting medium with DAPI (Vector labs, Brussels, Belgium). Images were acquired via a Panoramic 250 Flash III digital slide scanner (3D Histech, Hungary) and visualized with Caseviewer version 2.2 software (3D Histech, Hungary). The average vessel area was quantitated by making snapshots at a 20× objective of at least 5 areas of each matrigel plug and measuring the area of a least 6 UEA+ vessels each using ImageJ software.
To evaluate the overall vascular morphology within the explants, wholemount IF of vessels within matrigel plugs was done. After excising skins with matrigel plugs attached and flat-fixing them overnight in 10% neutral buffered formalin, an approximately 100-200 μm piece of the plug was sliced off and washed in 1×PBS. The pieces were blocked overnight in 1% BSA (v/v) (Gibco) and 0.3% Triton-X100 (Sigma-Aldrich, Diegem, Belgium) in 1×PBS, then incubated in UEA1 for at least 72 hours, followed by in CY5-streptavidin secondary antibody (Vector labs, Brussels, Belgium). Pieces were then post-fixed in 10% NBF for 10 min, then mounted with Fluormount G (Thermo Fischer Scientific, Merelbeke, Belgium). Z-stack images were acquired with a Zeiss cell observer spinning disk confocal microscope (Zeiss, Germany); 3-D projections of Z-stacks were generated by the AriVis4D software. […] Non-vascularized UEA+ cells were also present but the expression is reduced. Also conducted were comparisons of treated and untreated VM lesions at day 16 with wild type and L914F TIE2 mutants in which treatment began at day 0 (FIG. 18A-D) or day 7 (FIG. 19A-C).

WT TIE2 and TIE2 mutants = assay: Mutant TIE2-transfected HUVEC Western blot assay: TIE2 phosphorylation; type: cell-based, human; conditions: 100 nM, 4 hours, HUVECs with WT TIE2 and TIE2 mutants, presence or absence of ANGPT1 stimulation
Experimental: as §1, §2

TIE2 mutant HUVECs [4] = assay: Mutant TIE2-transfected HUVEC cell morphology assay; type: cell-based, human; conditions: 100 nM, imaged at 24 and 48 hours, TIE2 mutant HUVECs compared with WT TIE2 HUVECs
Experimental: as §1
HUVEC cells (5×10^5 cells/plate) stably expressing WT or TIE2 mutants R849W, L914F, R1099*, Y897C/R915C, Y897F/F915L, or T1105N/T1106P were added to a 10 cm plate coated with attachment factor solution (Tebu-Bio, Boechout, Belgium) in 6 mL of endothelial cell growth media (Tebu-Bio, Boechout, Belgium) containing 10% fetal calf serum (Sigma-Aldrich, Diegem, Belgium). Cells were then incubated for 2 days at 37 degrees Celsius, 5% CO2, and 95% humidity. Next, test compound or DMSO was added to the wells (0.068% final DMSO concentration). The plates were then further incubated for 48 hours at 37 degrees Celsius, 5% CO2, and 95% humidity. The cells were imaged by microscopy at 24 hours and 48 hours after addition of compound.

[5] = system: HUVEC cells expressing mutant TIE2-L914F (VM lesions in matrigel plugs); assay: Venous malformation mouse model, previously established VM lesions, diet from post-implant day 7; type: in vivo, athymic nude male mice
Experimental: as §3
as §4, with “For immunofluorescent staining (IF), sections were incubated with primary antibodies that recognize UEA1, the smooth muscle layer marker SMA (clone 1A4, Sigma-Aldrich, Diegem, Belgium), phosphorylated-TIE2(Y772) (Bioke, Leiden, Netherlands), or total TIE2 (Santa Cruz, Heidelberg, Germany). Secondary antibodies used were conjugated to Alexa488-, Alexa649-, or CY5-fluorophores. Slides were mounted with VectaShield Hardset mounting medium with DAPI (Vector labs, Brussels, Belgium). Images were acquired via a Panoramic 250 Flash III digital slide scanner (3D Histech, Hungary) and visualized with Caseviewer version 2.2 software (3D Histech, Hungary).” left out, “software. […]” for “software.”

[6] = diet equivalent to 10 mg/kg from Day 0, post-implant day 7
[7] = diet equivalent to 10 mg/kg from Day 0, post-implant day 7, versus control diet
[8] = diet equivalent to 10 mg/kg from Day 0, post-implant day 16

In the case of `CNC(=O)c1cc(Oc2ccc(NC(=O)Nc3cc(C(C)(C)C)nn3-c3ccc4ncccc4c3)c(F)c2)ccn1` [compound of Formula I, rebastinib], the “inhibition of STAT1 phosphorylation” value (STAT1) is reported as “complete inhibition”, the “inhibition of AKT Ser473 phosphorylation” value (AKT) is reported as “complete inhibition” and the “inhibition of AKT Thr308 phosphorylation” value (AKT) is reported as “complete inhibition”. For the same compound, the “expression of ADAMTS1 RNA” value (TIE2 mutant HUVECs [1]) was “decreased expression”, the “expression of ADAMTS9 RNA” value (TIE2 mutant HUVECs [1]) was “decreased expression” and the “expression of ANGPT2 RNA” value (TIE2 mutant HUVECs [1]) was “increased expression”. The “expression of PDGFB RNA” value (TIE2 mutant HUVECs [1]) was “increased expression”, the “expression of PLAT RNA” value (TIE2 mutant HUVECs [1]) was “decreased expression” and the “expression of PLAU RNA” value (TIE2 mutant HUVECs [1]) was “decreased expression”. For the same compound, the “fibronectin levels in the extracellular matrix” value [2] was “restored fibronectin levels”, the “gross appearance of blood-filled vascular channels (macroscopic view of lesions)” value ([3]; diet equivalent to 10 mg/kg from Day 0, compared to untreated mutants) was “more controlled and less severe” and the “overall vascular morphology (wholemount IF)” value [3, 6] was “more normal, tubular vessels were seen”. The “smooth muscle cell/pericyte coverage (SMA staining)” value [3, 6] was “displayed a few SMA positive cells”, the “average area of vessels within the plugs” value [3, 7] was “drastically less” and the “expression of pTIE2 in ECs” value [3, 7] was “weaker”. The “overall vascular morphology (wholemount IF)” value [3, 8] was “largely normalized”, the “smooth muscle cell/pericyte coverage (SMA+ cells)” value [3, 8] was “surrounded more consistently by SMA+ cells” and the “vessel size in lesions” value ([3]; diet equivalent to 10 mg/kg from Day 0, post-implant day 16, versus control diet and untreated) was “much smaller vessels”. For the same compound, the “pTIE2 in ECs” value ([3]; diet equivalent to 10 mg/kg from Day 0, post-implant day 16, versus untreated) was “drastically reduced”, the VM development ([3]; mice fed compound-infused food) was “reduced VM development” and the “inhibition of TIE2 phosphorylation” value (WT TIE2 and TIE2 mutants) was “complete inhibition”. For the same compound, the cellular morphology (TIE2 mutant HUVECs [4]) was “restored cellular morphology”, the “severity of established VMs” value ([5]; diet from post-implant day 7) was “ameliorated the severity of VMs” and the “average vascular area of vessels” value ([5]; diet from post-implant day 7, explants day 16) was “moderately reduced”. The “smooth muscle cell layer coverage” value ([5]; diet from post-implant day 7, explants day 16, versus control diet) was “improved smooth muscle cell layer coverage”.
